# Measurements published in US9540332B2, “Benzimidazole derivatives as selective blockers of persistent sodium current” (Allergan, Inc., priority 2011, dated 2017).
# Entries after “also recorded” stand apart in the source; their conditions may differ.
# Tests used:
# [1] = tested on: blue light induced photoreceptor injury; test: blue light induced photoreceptor injury (ERG and histology); format: in vivo, Sprague Dawley rat
# Description: Exposure to blue light results in a loss of photoreceptor cells in the outer retina (arrows).
# Hemotoxylin and Eosin stained retinal sections are imaged and outer nuclear layer (ONL) thickness and cell count is evaluated in 8 consecutive regions on either side of the optic nerve head (ONH) (A). In Sprague Dawley rat the typical ONL thickness and photoreceptor cell counts adjacent to the ONH are approximately 40 microns and 10 cells, respectively (B). The cell counts and thicknesses from a retinal section taken from the vertical meridian reveal that in naïve retinae they are stable from just adjacent to ONH in to the ora serata (C,D).
# Rat eyes were cut parallel to the vertical meridian through the optic nerve head and several sections were collected. […] Within each […] region, 3 measurements, […] apart, were conducted, averaged and reported as ONL thickness (um). The number of rod and cone nuclei spanning the outer nuclear layer at each measurement site were counted manually and tabulated as photoreceptor #. For each animal, two to three sections were analyzed and averaged to give a final quantifiable value.
# [2] = tested on: seizures induced by a 6 Hz alternating current in mice; test: 6 Hz seizure model; format: in vivo; details: for Protected/Tested: 6 Hz 32 milliamp; for Protected/Tested / Deaths: 0.50 hr; for Deaths: 6 Hz
# [3] = tested on: Experimental Autoimmune Encephalomyelitis (EAE); test: Experimental Autoimmune Encephalomyelitis (EAE), clinical score and flash VEP; format: in vivo, rats
# Description: Encephalomyelitis (EAE). (A) Representative flash Visual Evoked Potential (VEP) traces from baseline and following the induction of EAE. Three distinct peaks, N1, P2, N2 are labeled in the traces, with P2 being the most reproducible. Note that following the induction of EAE the latency to the P2 peak is increased. This is associated with a poor visual outcome in Optic Neuritis in humans. […] The maximum clinical score is the score associated with the most severe paralysis each animal experienced during the daily observation period.
# [4] = tested on: capsaicin-induced thermal hyperalgesia; test: capsaicin-induced thermal hyperalgesia, plantar test; format: in vivo, rat; details: doses 10 mg/kg and above, i.p., FIG. 10
# Description: A second method for evaluating of 1,2 substituted benzimidazoles on neuropathic pain was to determine their effects on capsaicin-induced thermal hyperalgesia in the rat.
# Peripherally administered capsaicin (the active agent in chili peppers) induces an acute, local, inflammatory response through actions on nociceptive sensory nerve endings (‘pain fibers”). In rats, intraplantar injection of capsaicin produces decease in withdrawal latency to radiant heat (thermal hyperalgesia). This primary hyperalgesia, observed at the site of injury, is characterized by sensitization to thermal and mechanical stimulation. Primary hyperalgesia, especially that elicited by noxious thermal stimulus, is mediated, in part, by sensitization of C-fiber mechanoheat (polymodal) receptors (Kennis, 1982; Konietzny and Hensel, 1983; Simone, et al, 1987). […]
# Intraplantar injection of capsaicin ([…]) was used to induce thermal hyperalgesia, as described previously(Gilchrist et al., 1996). […] For this test, hind paw withdrawal latencies (PWLs) to a noxious thermal stimulus were determined using the technique described by Hargreaves et al. (1988) using a plantar test apparatus (PAW
# Thermal Analgesia Meter instrument Department of Anesthesiology, UCSD, San Diego, Calif.). Time to remove paw from heat source is measured and expressed as the paw withdrawal latency. […]
# assessed 30 minutes after capsaicin challenge. […]
# Nav1.3 = biological target: T1, Nav1.3 (Homo sapiens, UniProt Q9NY46); test: gigohm-seal manual patch-clamp (MPC) on HEK cells stably transfected with sodium channels; format: cell-based
# T1 construct: expressed in transfected cells; host or cells: HEK cells, stably transfected
# Description: Therefore, the efficacy and selectivity of the identified persistent current antagonists were verified using conventional gigohm-seal manual patch-clamp (MPC).
# MPC experiments were conducted on human embroynic kidney (HEK) cells stably transfected with sodium channels were plated on coverslips. Cells were patch clamped using standard patch-clamp techniques (Hamill, O. P., A. Marty, et al., 1981 Pflugers Arch. 391:85-100). Once sufficient persistent current was established, buffer was introduced into the chamber at a constant flow rate of […] until the persistent current stabilized. Subsequent concentration-response experiments were conducted using this same flow rate. After application of the compound, current amplitude was monitored until equilibrium was established. The data recorded at equilibrium was normalized to the control current measured during perfusion with control buffer in the absence of a test compound. Adequate solution perfusion and gigohm seal stability were monitored throughout the experiment. The compound's antagonism of persistent or transient sodium currents is expressed as the IC5O of block for the respective current (see Table 1). Selectivity for block of the persistent current was calculated as the ratio of the IC5O for the transient current divided by the IC5O for the persistent current.
# [5] = tested on: rat cultured hippocampal pyramidal neurons; test: spontaneous firing of cultured hippocampal neurons, whole cell current clamp; format: cell-based; details: 1 μM, FIG. 2
# Description: Activity of the compounds on the rate of spontaneous firing of neurons was assessed in hippocampal neurons. Hippocampal cells from P-2 rats were cultured for 10-14 days prior to use. Cells were plated on laminin-coated cover slips that could be transferred to a perfusion chamber for conventional whole cell electrophysiological studies. Conventional whole cell current clamp methods were used to record steady state and spontaneous action potentials. Cells were held at their resting potential (Iclamp=0 pA) and spontaneous action potentials were recorded and followed over time. Healthy cells had low rates of spontaneous firing. Spontaneous firing rate increased with metabolic insults to cells, e.g. Mg^2+-depletion or with aging. Spontaneous firing appeared to occur more often in older cell cultures (10-14 days).
# The “current clamp” mode was employed tomeasure frequency of spontaneous discharge and action potential bursting in the absence and presence of compound #3 (1 μM). […] The results of these experiments contribute to the efficacy profile of the compounds of the present invention.
# [6] = tested on: mechanical allodynia produced by spinal nerve ligation; test: spinal nerve ligation (Chung Model), mechanical allodynia, von Frey hairs; format: in vivo, rats
# Description: To assess the actions of the presently claimed benzimdazole compounds in neuropathic pain their efficacy in reversing the mechanical allodynia produced by spinal nerve ligation (Chung Model) and reducing the thermal hyperalgesia produced by subcutaneous injection of capsaicin was determined.
# In the Chung spinal nerve ligation model, rats are anesthetized before surgery. The surgical site is shaved and prepared either with betadine or Novacaine. Incision is made from the thoracic vertebra XIII down toward the sacrum. Muscle tissue is separated from the spinal vertebra (left side) at the L4-S2 levels. The L6 vertebra is located and the transverse process is carefully removed with a small rongeur to expose the L4-L6 spinal nerves. The L5 and L6 spinal nerves are isolated and tightly ligated with 6-0 silk thread. The same procedure is done on the right side as a control, except no ligation of the spinal nerves is performed. […]
# Compounds to be tested were prepared as suspension in vehicle containing 2% sodium carboxymethylcellulose (CMC) and 1% Pluronic FI 27 by vigorous homogenization. […] Tactile allodynia was measured prior to and at increments of 15, 30, 60 and 90 minutes after drug administration using von Frey hairs that are a series of fine hairs with incremental differences in stiffness. […] The applied force has been calculated to range from 0.41 to 15.1 grams. […]
# T1 sequence (Q9NY46 whole entry): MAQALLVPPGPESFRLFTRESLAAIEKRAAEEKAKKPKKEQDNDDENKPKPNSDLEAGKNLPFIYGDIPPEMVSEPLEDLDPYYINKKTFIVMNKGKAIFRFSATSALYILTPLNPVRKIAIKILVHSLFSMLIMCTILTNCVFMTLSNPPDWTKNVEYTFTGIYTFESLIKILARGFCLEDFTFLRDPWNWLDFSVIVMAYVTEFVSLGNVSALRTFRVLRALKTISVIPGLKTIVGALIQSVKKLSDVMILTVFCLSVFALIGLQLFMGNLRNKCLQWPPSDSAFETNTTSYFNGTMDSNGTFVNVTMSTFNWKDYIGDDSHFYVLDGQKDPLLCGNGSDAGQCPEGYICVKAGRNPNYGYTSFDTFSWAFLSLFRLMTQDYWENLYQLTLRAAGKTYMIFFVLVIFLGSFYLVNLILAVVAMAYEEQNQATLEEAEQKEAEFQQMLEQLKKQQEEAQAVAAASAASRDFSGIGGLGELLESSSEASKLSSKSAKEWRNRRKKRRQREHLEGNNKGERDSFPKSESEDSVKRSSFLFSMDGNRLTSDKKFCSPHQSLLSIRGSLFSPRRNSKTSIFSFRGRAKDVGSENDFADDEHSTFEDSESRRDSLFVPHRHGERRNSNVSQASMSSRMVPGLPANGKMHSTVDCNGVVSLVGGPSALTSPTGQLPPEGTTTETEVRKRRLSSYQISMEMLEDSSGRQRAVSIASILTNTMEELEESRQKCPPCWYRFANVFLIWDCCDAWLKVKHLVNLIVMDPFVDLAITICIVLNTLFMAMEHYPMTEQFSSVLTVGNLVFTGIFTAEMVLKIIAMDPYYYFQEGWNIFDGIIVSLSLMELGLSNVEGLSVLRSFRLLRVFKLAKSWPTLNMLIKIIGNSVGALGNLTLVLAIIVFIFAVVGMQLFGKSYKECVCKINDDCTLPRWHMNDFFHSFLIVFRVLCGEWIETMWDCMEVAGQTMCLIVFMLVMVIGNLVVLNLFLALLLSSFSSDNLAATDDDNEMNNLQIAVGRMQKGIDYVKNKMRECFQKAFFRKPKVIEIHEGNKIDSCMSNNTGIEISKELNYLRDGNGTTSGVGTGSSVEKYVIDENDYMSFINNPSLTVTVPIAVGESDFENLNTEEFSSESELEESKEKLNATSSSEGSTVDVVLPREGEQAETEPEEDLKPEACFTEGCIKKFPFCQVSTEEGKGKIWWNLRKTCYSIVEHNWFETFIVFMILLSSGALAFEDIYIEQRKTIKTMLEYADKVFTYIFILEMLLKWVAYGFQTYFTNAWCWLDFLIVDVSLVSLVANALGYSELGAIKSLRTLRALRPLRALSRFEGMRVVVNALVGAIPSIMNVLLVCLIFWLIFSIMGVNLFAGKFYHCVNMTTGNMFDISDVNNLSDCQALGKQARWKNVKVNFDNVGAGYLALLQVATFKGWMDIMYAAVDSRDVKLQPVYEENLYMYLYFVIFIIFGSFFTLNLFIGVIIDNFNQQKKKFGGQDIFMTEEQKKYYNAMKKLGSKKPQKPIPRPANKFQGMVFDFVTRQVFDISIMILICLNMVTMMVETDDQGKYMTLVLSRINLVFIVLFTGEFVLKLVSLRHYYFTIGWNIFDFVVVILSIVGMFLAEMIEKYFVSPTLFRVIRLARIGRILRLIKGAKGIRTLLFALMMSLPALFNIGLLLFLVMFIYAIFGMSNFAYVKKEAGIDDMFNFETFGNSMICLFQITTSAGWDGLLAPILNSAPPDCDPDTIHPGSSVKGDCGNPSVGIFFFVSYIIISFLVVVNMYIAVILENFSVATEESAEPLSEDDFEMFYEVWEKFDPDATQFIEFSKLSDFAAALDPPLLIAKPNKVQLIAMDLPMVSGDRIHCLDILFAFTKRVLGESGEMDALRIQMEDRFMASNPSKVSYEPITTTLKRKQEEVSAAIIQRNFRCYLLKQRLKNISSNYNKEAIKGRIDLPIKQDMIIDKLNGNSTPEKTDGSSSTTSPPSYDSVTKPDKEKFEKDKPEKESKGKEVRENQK
smiles,measurement,setting,value
"COc1cccc(OCc2nc3ccc(OCCC(C)C)cc3n2CC(C)C)c1 [Compound #2, 1-Isobutyl-2-(3-methoxy-phenoxymethyl)-6-(3-methyl-butoxy)-1H-benzimidazole]",retinal function and structure as determined by ERG and histology,"[1]; 30 mg/kg i.p., 6 hour blue light exposure, FIG. 8",preserves retinal function and structure
same,Protected/Tested,[2]; dose 12.5 mg/kg,1/8
same,Protected/Tested,[2]; dose 25.0 mg/kg,3/8
same,Protected/Tested,[2]; dose 50.0 mg/kg,3/8
same,Protected/Tested,[2]; dose 100.0 mg/kg,5/8
same,Protected/Tested,[2]; dose 200.0 mg/kg,8/8
same,Deaths,[2]; dose 12.5 mg/kg,0
same,Deaths,[2]; dose 25.0 mg/kg,0
same,Deaths,[2]; dose 50.0 mg/kg,0
same,Deaths,[2]; dose 100.0 mg/kg,0
same,Deaths,[2]; dose 200.0 mg/kg,0
same,EC50 in the 6 Hz seizure model,[2]; mice,50.7 mg/kg
same,predicted TD50,[2]; mice,> 500 mg/kg
same,VEP latency (P2 peak),"[3]; 50 mg/kg, FIG. 11 B, C",preserves VEP latency
same,maximum clinical score versus vehicle,[3]; FIG. 11,significantly (P<0.01) average lower clinical score
same,initial clinical sign of paralysis,"[3]; dose of 30 mg/kg, FIG. 11",significantly reduces
"C=C(C)Cn1c(COc2cccc(OC)c2)nc2ccccc21 [Compound #3, 1-[1-(2-methylprop-2-enyl)benzimidazol-2-ylmethoxy]-3-methoxybenzene]",capsaicin-induced thermal hyperalgesia,[4],significantly reduces
same,concentration blocking 50% of the persistent current,Nav1.3; FIG. 1,low to submicromolar
same,IC50,"Nav1.3; FIG. 1, read-out: effective dose for blocking the transient current",> 30 µM
same,bursting activity (spontaneous bursts of action potentials),[5],bursting activity was reduced
same,spontaneous discharge of action potentials,[5],potently decreased
same,retinal function as determined by ERG (b-wave and a-wave amplitude),"[1]; 100 mg/kg i.p., after blue light exposure, FIG. 6",significantly preserves retinal function
same,"structural integrity of the retina by histology (ONL thickness, photoreceptor count)","[1]; 100 mg/kg i.p., after blue light exposure, FIG. 7",preserved the structural integrity of the retina; also recorded: protects photoreceptors from blue-light induced toxicity
same,allodynia with respect to vehicle injected controls,"[6]; doses of 300 mg/kg, i.p., FIG. 9",significantly reduced
same,reversal of mechanical allodynia,"[6]; doses of 30 and 300 mg/kg, FIG. 9 legend",significantly reduced
